Results from patent US20130178493A1, “USE OF 14,15-DIHYDRO-20,21-DINOREBURNAMENIN-14-OL FOR THE TREATMENT AND/OR PREVENTION OF SERIOUS DEPRESSION AND SLEEP/WAKING CYCLE DISORDERS” (BIOCORTECH, priority 2004, published 2013).

Tests used:
mice = conditions: mouse, in vivo, iv
Protocol: Acute toxicity is determined on batches of 10 male and female mice, weighing from 20 to 22 g, fasting since the previous evening.
The product is administered intravenously, in solution in physiological saline solution, to which a few drops of hydrochloric acid have been added (products to be tested are then in hydrochloric solution).
Mortality is recorded daily for one week. Values of the lethal doses 50 (LD 50) were determined using the method given by Lichfield J. T. and Wilcoxon F. (J. Pharm. Exp. Therap. 96:99, 1949).

[1] = test system: immunopositive neurones for TH in LC; assay: Immunocytochemistry of tyrosine hydroxylase immunopositive neurones in locus caeruleus after IP injection; format: in vivo, Balb/c mice
Protocol: (§1) The anatomical data presented in table 1 below were obtained three days after a single injection or after a sequential treatment of five injections at a rate of one injection every three days. Immunopositive cells for tyrosine hydroxylase (TH) and fibres containing noradrenaline were identified by immunocytochemistry in the examined brain areas. Sleep records were made on a group of ten Balb/c mice. The electroencephalogram for each animal was recorded continuously for five days for acquisition of basal data about the wake-sleep cycle. Five animals were then treated by five IP injections every three days starting from day 5 until day 17 of the experiment. The other five animals were injected with the excipient at the same time After the last injection, all mice were deprived of sleep for 6 hours and records went on for another two consecutive days to measure the total REM sleep recovery. The given BC19 dose is 20 mg/kg for each injection, in all these experiments.

[2] = test system: cells expressing hypocretine in the hypothalamus; assay: Number of hypocretine-expressing neurones in hypothalamus after IP injection; format: in vivo, Balb/c mice
[3] = test system: fibres containing noradrenaline in the prefrontal cortex; assay: Density of noradrenaline-containing fibres in prefrontal cortex after sequential treatment; format: in vivo, Balb/c mice
Protocol: as §1

Balb/c mice = assay: REM sleep recovery after sleep deprivation (electroencephalogram records); format: in vivo
Protocol: as §1

[4] = sacrifice 3 days after a single IP injection (20 mg/kg), Balb/c mice

Question: OC1CC2CCCN3CCc4c(n1c1ccccc41)C23 (racemic) [BC19, 14,15-dihydro 20,21-dinoreburnamenin14-ol] was tested. Which “Acute toxicity (mortality, LD 50)” value (mice) did it give?
Answer: did not demonstrate any toxicity

Question: And the activity at 20 mg/kg ([1]; Mus musculus, 72 h, sacrifice 3 days after a single IP injection (20 mg/kg), Balb/c mice, read-out: Total number of immunopositive neurones for TH in LC, % of controls)?
Answer: 135%

Question: And the “Effect on noradrenergic phenotype in locus caeruleus (in words)” value ([1]; injected into Balb/c mice)?
Answer: restoring the noradrenergic phenotype in a significant population of locus caeruleus

Question: What about the “Total number of immunopositive neurones for TH in LC” value [1, 4] of the same compound?
Answer: 1228 ± 24

Question: And the “Effect on hypocretine phenotype in neurones of the hypothalamus (in words)” value ([2]; injected into Balb/c mice)?
Answer: restoring the hypocretine phenotype in a sub-population of neurones of the hypothalamus

Question: And the “Number of neurones in the posterior third of the group of cells expressing hypocretine in the hypothalamus” value [2, 4]?
Answer: 671 ± 24

Question: What about the “Number of neurones in the posterior third of the group of cells expressing hypocretine in the hypothalamus, % of controls” value [2, 4] of the same compound?
Answer: (121 ± 4%)

Question: And the activity at 20 mg/kg ([3]; Mus musculus, 72 h, sequential treatment: five IP injections, one every three days, 20 mg/kg, Balb/c mice, read-out: Density of fibres containing noradrenaline in the prefrontal cortex, % of controls)?
Answer: 156%

Question: What about the “Effect on noradrenergic innervation in the prefrontal cortex (in words)” value ([3]; injected into Balb/c mice) of the same compound?
Answer: restoring noradrenergic innervation in the prefrontal cortex

Question: What about the “Density of fibres containing noradrenaline in the prefrontal cortex” value ([3]; sequential treatment: five IP injections, one every three days, 20 mg/kg, Balb/c mice) of the same compound?
Answer: 0.050 ± 0.003 μm/μm^2

Question: What about the activity at 20 mg/kg (Balb/c mice; Mus musculus, deprived mice (6 hours sleep deprivation), after five IP injections every three days, 20 mg/kg, Balb/c mice, read-out: Duration of REM sleep during the recovery period, % of controls without sleep deprivation) of the same compound?
Answer: 151 ± 11%

Question: What about the “Duration of REM sleep during the recovery period” value (Balb/c mice; deprived mice (6 hours sleep deprivation), after five IP injections every three days, 20 mg/kg, Balb/c mice) of the same compound?
Answer: 110 ± 8 mn

Question: What about the “Effect on recovery of REM sleep after sleep privation (in words)” value (Balb/c mice; injected into Balb/c mice) of the same compound?
Answer: reversing the inability of these consanguine mice to recover REM
